Measurements: ChEMBL document CHEMBL1144461, “Targeted drug-carrying bacteriophages as antibacterial nanomedicines” (Antimicrob Agents Chemother, 2007)
Active and inactive are the calls of the source.

Legend:
Format in all cases: functional, organism-based
Escherichia coli = assay: Antibacterial activity against Escherichia coli O78
Streptococcus pyogenes = assay: Antibacterial activity against Streptococcus pyogenes
Staphylococcus aureus = assay: Antibacterial activity against Staphylococcus aureus COL

Measured: Activity

O=C(N[C@H](CO)[C@H](O)c1ccc([N+](=O)[O-])cc1)C(Cl)Cl
active: Escherichia coli | Streptococcus pyogenes | Staphylococcus aureus
